Patent publication US5700804A, “Pharmaceutical compounds” (Xenova Limited, priority 1992, dated 1997)

Target: PAI-1 (Homo sapiens, UniProt P05121)
Assay: PAI chromogenic substrate assay (first S2251 assay, tPA/plasminogen system)
Format: biochemical
Method: In this assay, a compound is incubated with PAI-1 prior to addition to the tPA assay system. Inhibition of PAI-1 results in the production of plasmin from plasminogen. In turn, plasmin cleaves the chromogenic substrate S2251 (Kabi Vitrum) producing pNA (p-nitroaniline) which is detected spectrophotometrically at 405 nm (K. Nilsson et al, Fibrinolysis (1987) 1, 163-168).
Compounds of formula (A) were tested in a PAI chromogenic substrate assay. In the first assay (K. Nilsson, Fibrinolysis (1987) 1, 163-168) each compound was incubated with PAI-1 prior to addition to the tPA assay system. […] In turn, the plasmin cleaved the chromogenic substrate S2251 (Kabi-Vitrum) producing pNA (p-nitroaniline) which was detected spectrophotometrically at 405 nm.

PAI-1, sequence (P05121 24-402): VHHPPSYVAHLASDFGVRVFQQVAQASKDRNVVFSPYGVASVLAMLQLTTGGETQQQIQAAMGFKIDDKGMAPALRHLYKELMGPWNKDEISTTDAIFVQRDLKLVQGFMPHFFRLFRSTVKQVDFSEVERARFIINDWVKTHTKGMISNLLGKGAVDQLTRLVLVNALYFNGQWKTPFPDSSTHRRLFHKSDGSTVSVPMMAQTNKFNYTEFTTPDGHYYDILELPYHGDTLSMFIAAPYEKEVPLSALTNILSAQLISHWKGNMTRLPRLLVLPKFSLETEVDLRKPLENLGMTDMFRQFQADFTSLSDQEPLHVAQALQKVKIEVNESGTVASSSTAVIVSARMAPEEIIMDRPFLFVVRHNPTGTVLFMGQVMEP

Inhibition of PAI-1 in the first S2251 chromogenic substrate assay (Concentration 6.25 μm) [%] | Inhibition of PAI-1 in the first S2251 chromogenic substrate assay (Concentration 12.5 μm) [%] | Inhibition of PAI-1 in the first S2251 chromogenic substrate assay (Concentration 25 μm) [%] | Inhibition of PAI-1 in the first S2251 chromogenic substrate assay (Concentration 50 μm) [%] | Inhibition of PAI-1 in the first S2251 chromogenic substrate assay (Concentration 100 μm) [%] | Inhibition of PAI-1 in the first S2251 chromogenic substrate assay (Concentration 3.75 μm) [%] | Inhibition of PAI-1 in the first S2251 chromogenic substrate assay (Concentration 7.5 μm) [%] | Inhibition of PAI-1 in the first S2251 chromogenic substrate assay (Concentration 15 μm) [%] | Inhibition of PAI-1 in the first S2251 chromogenic substrate assay (Concentration 30 μm) [%] | Inhibition of PAI-1 in the first S2251 chromogenic substrate assay (Concentration 60 μm) [%] | Compound
0 | 0 | 1 | 2 | 61 |  |  |  |  |  | O=c1[nH]c(=Cc2ccccc2)c(=O)[nH]c1=Cc1ccccc1 [Compound 22, 3,6-Dibenzylidene-2,5-piperazinedione]
0 | 1 | 1 | 20 | 67 |  |  |  |  |  | Nc1ccccc1/C=c1\[nH]c(=O)/c(=C/c2ccccc2)[nH]c1=O [Compound 39, (3Z,6Z)-3-(2-Aminobenzylidene)-6-benzylidene-2,5-piperazinedione]
 | 19 | 60 | 76 | 71 |  |  |  |  |  | CSCc1ccc(/C=c2\[nH]c(=O)/c(=C/c3ccccc3)[nH]c2=O)cc1 [Compound 59, (3Z,6Z)-6-Benzylidene-3-(4-methylthiomethylbenzylidene)-2,5-piperazinedione]
 |  |  |  |  | 0 | 0 | 0 | 29 | 56 | O=c1[nH]/c(=C\c2cccc([N+](=O)[O-])c2)c(=O)[nH]/c1=C\c1ccccc1 [Compound 24, (3Z,6Z)-6-Benzylidene-3-(3-nitrobenzylidene)-2,5-piperazinedione]

The remaining lines, values behind:

Compound | Inhibition of PAI-1 in the first S2251 chromogenic substrate assay (Concentration 6.25 μm) [%] | Inhibition of PAI-1 in the first S2251 chromogenic substrate assay (Concentration 12.5 μm) [%] | Inhibition of PAI-1 in the first S2251 chromogenic substrate assay (Concentration 25 μm) [%] | Inhibition of PAI-1 in the first S2251 chromogenic substrate assay (Concentration 50 μm) [%] | Inhibition of PAI-1 in the first S2251 chromogenic substrate assay (Concentration 100 μm) [%] | Inhibition of PAI-1 in the first S2251 chromogenic substrate assay (Concentration 3.75 μm) [%] | Inhibition of PAI-1 in the first S2251 chromogenic substrate assay (Concentration 7.5 μm) [%] | Inhibition of PAI-1 in the first S2251 chromogenic substrate assay (Concentration 15 μm) [%] | Inhibition of PAI-1 in the first S2251 chromogenic substrate assay (Concentration 30 μm) [%] | Inhibition of PAI-1 in the first S2251 chromogenic substrate assay (Concentration 60 μm) [%]
CC(=O)Oc1ccccc1/C=c1\[nH]c(=O)/c(=C/c2ccccc2)[nH]c1=O [Compound 32, (3Z,6Z)-3-(2-Acetoxybenzylidene)-6-benzylidene-2,5-piperazinedione] | 0 | 1 | 3 | 36 | 87 |  |  |  |  | 
CCOc1ccc(/C=c2\[nH]c(=O)/c(=C/c3ccccc3)[nH]c2=O)cc1 [Compound 25, (3Z,6Z)-6-Benzylidene-3-(4-ethoxybenzylidene)-2,5-piperazinedione] | 0 | 0 | 1 | 25 | 52 |  |  |  |  | 
COc1ccc(/C=c2\[nH]c(=O)/c(=C/c3ccccc3[N+](=O)[O-])[nH]c2=O)cc1 [Compound 28, (3Z,6Z)-6-(4-Methoxybenzylidene)-3-(2-nitrobenzylidene)-2,5-piperazinedione] | 0 | 1 | 45 | 74 | 71 |  |  |  |  | 
COc1ccc(/C=c2\[nH]c(=O)/c(=C/c3ccccc3Br)[nH]c2=O)cc1 [Compound 53, (3Z,6Z)-3-(2-Bromobenzylidene)-6-(4-methoxybenzylidene)-2,5-piperazinedione] |  | 2 | 9 | 32 | 55 |  |  |  |  | 
COc1ccc(/C=c2\[nH]c(=O)/c(=C/c3cccc(CSC(C)=O)c3)[nH]c2=O)cc1 [Compound 63, (3Z,6Z)-3-(4-Methoxybenzylidene)-6-(3-thioacetoxymethylbenzylidene)-2,5-piperazinedione] |  | 36 | 44 | 70 | 69 |  |  |  |  | 
CC(=O)Nc1ccc(/C=c2\[nH]c(=O)/c(=C/c3ccccc3Br)[nH]c2=O)cc1 [Compound 79, (3Z,6Z)-6-(4-Acetamidobenzylidene)-3-(2-bromobenzylidene)-2,5-piperazinedione] | 1 | 2 | 27 | 55 | 42 |  |  |  |  | 
O=c1[nH]/c(=C\c2c(Cl)cccc2Cl)c(=O)[nH]/c1=C\c1ccccc1 [Compound 21, (3Z,6Z)-6-Benzylidene-3-(2,6-dichlorobenzylidene)-2,5-piperazinedione] | 0 | 0 | 2 | 35 | 79 |  |  |  |  | 
